{"source": "the RepoRT retention time repository"}
{"assay": "HILIC, Waters ACQUITY UPLC BEH Amide, 100 × 2.1 mm, 1.7 µm; A: water + 0.125% formic acid + 10 mM ammonium formate; B: 5% water + 95% acetonitrile + 0.125% formic acid + 10 mM ammonium formate; gradient (min/%B) 0/100 2/100 7.7/70 9.5/40 10.25/30 12.75/100 17/100", "conditions": "stereoisomer not certain", "units": {"LC retention time": "min"}}
{"smiles": "CCN(CC)C(=S)SSC(=S)N(CC)CC", "note": "[Disulfiram]", "LC retention time": 0.93}
{"smiles": "CC(=O)OC12COC1CC(O)C1(C)C(=O)C(O)C3=C(C)C(OC(=O)C(O)C(NC(=O)OC(C)(C)C)c4ccccc4)CC(O)(C(OC(=O)c4ccccc4)C21)C3(C)C", "note": "(stereo not drawn) [Docetaxel]", "LC retention time": 1.34}
{"smiles": "CN(CCOc1ccc(NS(C)(=O)=O)cc1)CCc1ccc(NS(C)(=O)=O)cc1", "note": "[Dofetilide]", "LC retention time": 3.38}
{"smiles": "O=C(OC1CC2CC3CC(C1)N2CC3=O)c1c[nH]c2ccccc12", "note": "(stereo not drawn) [Dolasetron]", "LC retention time": 1.9}
{"smiles": "COc1cc2c(cc1OC)C(=O)C(CC1CCN(Cc3ccccc3)CC1)C2", "note": "(stereo not drawn) [Donepezil]", "LC retention time": 2.44}
{"smiles": "NCCc1ccc(O)c(O)c1", "note": "[Dopamine]", "LC retention time": 6.4}
{"smiles": "CCN1CC(CCN2CCOCC2)C(c2ccccc2)(c2ccccc2)C1=O", "note": "(stereo not drawn) [Doxapram]", "LC retention time": 1.64}
{"smiles": "CN(C)CCC=C1c2ccccc2COc2ccccc21", "note": "[Doxepin]", "LC retention time": 2.26}
{"smiles": "CN(C)CCOC(C)(c1ccccc1)c1ccccn1", "note": "(stereo not drawn) [Doxylamine]", "LC retention time": 2.45}
{"smiles": "O=C(CCCN1CC=C(n2c(=O)[nH]c3ccccc32)CC1)c1ccc(F)cc1", "note": "[Droperidol]", "LC retention time": 3.48}
{"smiles": "CNCCC(Oc1cccc2ccccc12)c1cccs1", "note": "(stereo not drawn) [Duloxetine]", "LC retention time": 2.6}
{"smiles": "CC=C1N(C)C(C)CC1(c1ccccc1)c1ccccc1", "note": "(stereo not drawn) [EDDP]", "LC retention time": 1.9}
{"smiles": "COC(=O)C1C(O)CC2CCC1N2C", "note": "(stereo not drawn) [Ecgonine methylester]", "LC retention time": 4.18}
{"smiles": "CN1C2CCC1C(C(=O)O)C(O)C2", "note": "(stereo not drawn) [Ecgonine]", "LC retention time": 7.61}
{"smiles": "O=C1Nc2ccc(Cl)cc2C(C#CC2CC2)(C(F)(F)F)O1", "note": "(stereo not drawn) [Efavirenz]", "LC retention time": 0.98}
{"smiles": "CC(NC(CCc1ccccc1)C(=O)O)C(=O)N1CCCC1C(=O)O", "note": "(stereo not drawn) [Enalaprilat]", "LC retention time": 7.07}
{"smiles": "CCN1CCN(c2cc3c(cc2F)c(=O)c(C(=O)O)cn3C2CC2)CC1", "note": "[Enrofloxacin]", "LC retention time": 3.31}
{"smiles": "Oc1cc(O)c2c(c1)OC(c1cc(O)c(O)c(O)c1)C(O)C2", "note": "(stereo not drawn) [Epigallocatechin]", "LC retention time": 10.2}
{"smiles": "Oc1ccc(C2COc3cc(O)ccc3C2)cc1", "note": "(stereo not drawn) [Equol]", "LC retention time": 1.19}
{"smiles": "CC(C)C(C)C=CC(C)C1CCC2C3=CC=C4CC(O)CCC4(C)C3CCC21C", "note": "(stereo not drawn) [Ergosterol]", "LC retention time": 1.43}
{"smiles": "C[N+](C)(C)C(Cc1c[nH]c(=S)[nH]1)C(=O)[O-]", "note": "(stereo not drawn) [Ergothioneine]", "LC retention time": 7.74}
{"smiles": "CCCCCCCCC=CCCCCCCCCCCCC(N)=O", "note": "[Erucamide]", "LC retention time": 1.06}
{"smiles": "COC(=O)CCc1ccc(OCC(O)CNC(C)C)cc1", "note": "(stereo not drawn) [Esmolol]", "LC retention time": 3.13}
{"smiles": "COc1ccc2nc(S(=O)Cc3ncc(C)c(OC)c3C)[nH]c2c1", "note": "(stereo not drawn) [Esomeprazole]", "LC retention time": 1.35}
{"smiles": "NCCO", "note": "[Ethanolamine]", "LC retention time": 7.15}
{"smiles": "CCCC(=O)OCC", "note": "[Ethylbutanoate]", "LC retention time": 4.88}
{"smiles": "C#CC1(O)CCC2C3CCc4cc(O)ccc4C3CCC21C", "note": "(stereo not drawn) [Ethynylestradiol]", "LC retention time": 0.99}
{"smiles": "CCOC(=O)c1cncn1C(C)c1ccccc1", "note": "(stereo not drawn) [Etomidate]", "LC retention time": 0.98}
{"smiles": "COc1cc(C2c3cc4c(cc3C(OC3OC5COC(C)OC5C(O)C3O)C3COC(=O)C23)OCO4)cc(OC)c1O", "note": "(stereo not drawn) [Etoposide]", "LC retention time": 1.3}
{"smiles": "C=C1CC2C(CCC3(C)C(=O)CCC23)C2(C)C=CC(=O)C=C12", "note": "(stereo not drawn) [Exemestane]", "LC retention time": 0.98}
{"smiles": "O=C1C(CCC(O)c2ccc(F)cc2)C(c2ccc(O)cc2)N1c1ccc(F)cc1", "note": "(stereo not drawn) [Ezetimibe]", "LC retention time": 1.03}
{"smiles": "CC(=O)OCC(CCn1cnc2cnc(N)nc21)COC(C)=O", "note": "[Famciclovir]", "LC retention time": 1.38}
{"smiles": "NC(N)=Nc1nc(CSCCC(N)=NS(N)(=O)=O)cs1", "note": "[Famotidine]", "LC retention time": 5.59}
{"smiles": "NC(=O)OCC(COC(N)=O)c1ccccc1", "note": "[Felbamate]", "LC retention time": 1.2}
{"smiles": "CCNC(C)Cc1cccc(C(F)(F)F)c1", "note": "(stereo not drawn) [Fenfluramine]", "LC retention time": 2.33}
{"smiles": "Oc1ccc(C2CNCCc3c2cc(O)c(O)c3Cl)cc1", "note": "(stereo not drawn) [Fenoldopam]", "LC retention time": 5.68}
{"smiles": "CCOC(=O)C(C)Oc1ccc(Oc2nc3ccc(Cl)cc3o2)cc1", "note": "(stereo not drawn) [Fenoxaprop-P-ethyl]", "LC retention time": 1.01}
{"smiles": "COc1cc(/C=C/C(=O)O)ccc1O", "note": "[Ferulic acid]", "LC retention time": 1.36}
{"smiles": "CC(C)(C)NC(=O)C1CCC2C3CCC4NC(=O)C=CC4(C)C3CCC12C", "note": "(stereo not drawn) [Finasteride]", "LC retention time": 1.17}
{"smiles": "COC(=O)Nc1nc2ccc(C(=O)c3ccc(F)cc3)cc2[nH]1", "note": "[Flubendazole]", "LC retention time": 1.16}
{"smiles": "CCOC(=O)c1ncn2c1CN(C)C(=O)c1cc(F)ccc1-2", "note": "[Flumazenil]", "LC retention time": 1.08}
{"smiles": "CN1C(=O)CN=C(c2ccccc2F)c2cc([N+](=O)[O-])ccc21", "note": "[Flunitrazepam]", "LC retention time": 1.05}
{"smiles": "c1ccc2c(c1)Cc1ccccc1-2", "note": "[Fluorene]", "LC retention time": 6.66}
{"smiles": "CN1CCN(C2=Nc3cc(F)ccc3Cc3ccccc32)CC1", "note": "[Fluperlapine]", "LC retention time": 2.3}
{"smiles": "OCCN1CCN(CCCN2c3ccccc3Sc3ccc(C(F)(F)F)cc32)CC1", "note": "[Fluphenazine]", "LC retention time": 2.74}
{"smiles": "CCN(CC)CCN1C(=O)CN=C(c2ccccc2F)c2cc(Cl)ccc21", "note": "[Flurazepam]", "LC retention time": 2.41}
{"smiles": "COCCCCC(=NOCCN)c1ccc(C(F)(F)F)cc1", "note": "[Fluvoxamine]", "LC retention time": 2.93}
{"smiles": "Nc1nc2c(c(=O)[nH]1)N(C=O)C(CNc1ccc(C(=O)NC(CCC(=O)O)C(=O)O)cc1)CN2", "note": "(stereo not drawn) [Folinic acid]", "LC retention time": 7.92}
{"smiles": "COc1ccc(-c2coc3cc(O)ccc3c2=O)cc1", "note": "[Formononetine]", "LC retention time": 1.18}
{"smiles": "COc1ccc(CC(C)NCC(O)c2ccc(O)c(NC=O)c2)cc1", "note": "(stereo not drawn) [Formoterol]", "LC retention time": 5.18}
{"smiles": "CC(=O)OC1CC(C)(C)C(=C=CC(C)=CC=CC(C)=CC=CC=C(C)C=CC=C(C)C(=O)CC23OC2(C)CC(O)CC3(C)C)C(C)(O)C1", "note": "(stereo not drawn) [Fucoxanthin]", "LC retention time": 1.07}
{"smiles": "CCOC(=O)c1ccc(OC(=O)CCCCCN=C(N)N)cc1", "note": "[Gabexate]", "LC retention time": 3.45}
{"smiles": "NC1C(O)OC(CO)C(O)C1O", "note": "(stereo not drawn) [Galactosamine]", "LC retention time": 8.44}
{"smiles": "COc1ccc2c3c1OC1CC(O)C=CC31CCN(C)C2", "note": "(stereo not drawn) [Galanthamine]", "LC retention time": 4.62}
{"smiles": "COC(=O)C1=COC(OC2OC(CO)C(O)C(O)C2O)C2C(CO)=CCC12", "note": "(stereo not drawn) [Geniposide]", "LC retention time": 4.53}
{"smiles": "O=C(O)c1cc(O)ccc1O", "note": "[Gentisinic acid]", "LC retention time": 3.18}
{"smiles": "CC(C)=CCCC(C)=CC(=O)O", "note": "[Geranic acid]", "LC retention time": 1.3}
{"smiles": "CCC1=C(C)CN(C(=O)NCCc2ccc(S(=O)(=O)NC(=O)NC3CCC(C)CC3)cc2)C1=O", "note": "(stereo not drawn) [Glimepiride]", "LC retention time": 1.05}
{"smiles": "NC(N)=NCCCC(NC(=O)C(N)CCC(=O)O)C(=O)O", "note": "(stereo not drawn) [Glu-Arg]", "LC retention time": 9.9}
{"smiles": "NC(=O)CCC(NC(=O)C(N)CCC(=O)O)C(=O)O", "note": "(stereo not drawn) [Glu-Gln]", "LC retention time": 9.6}
{"smiles": "NCCCCC(NC(=O)C(N)CCC(=O)O)C(=O)O", "note": "(stereo not drawn) [Glu-Lys]", "LC retention time": 9.9}
{"smiles": "NC(CCC(=O)O)C(=O)NC(Cc1ccccc1)C(=O)O", "note": "(stereo not drawn) [Glu-Phe]", "LC retention time": 8.2}
{"smiles": "CC(O)C(NC(=O)C(N)CCC(=O)O)C(=O)O", "note": "(stereo not drawn) [Glu-Thr]", "LC retention time": 9.44}
{"smiles": "CC(C)C(NC(=O)C(N)CCC(=O)O)C(=O)NC(Cc1ccccc1)C(=O)O", "note": "(stereo not drawn) [Glu-Val-Phe]", "LC retention time": 7.66}
{"smiles": "O=C1OC(CO)C(O)C(O)C1O", "note": "(stereo not drawn) [Gluconolactone]", "LC retention time": 8.15}
{"smiles": "CS(=O)CCCCC(=NOS(=O)(=O)O)SC1OC(CO)C(O)C(O)C1O", "note": "(stereo not drawn) [Glucoraphanin]", "LC retention time": 7.37}
{"smiles": "NC1C(O)OC(COP(=O)(O)O)C(O)C1O", "note": "(stereo not drawn) [Glucosamine-6-phosphate]", "LC retention time": 10.1}
{"smiles": "O=P(O)(O)OC1OC(CO)C(O)C(O)C1O", "note": "(stereo not drawn) [Glucose-1-phosphate]", "LC retention time": 9.61}
{"smiles": "O=P(O)(O)OCC1OC(O)C(O)C(O)C1O", "note": "(stereo not drawn) [Glucose-6-phosphate]", "LC retention time": 9.86}
{"smiles": "O=CC(O)C(O)C(O)C(O)CO", "note": "(stereo not drawn) [Glucose]", "LC retention time": 1.84}
{"smiles": "NC(CCC(=O)O)C(=O)O", "note": "(stereo not drawn) [Glutamic acid]", "LC retention time": 8.85}
{"smiles": "NC(CCC(=O)NC(CSSCC(NC(=O)CCC(N)C(=O)O)C(=O)NCC(=O)O)C(=O)NCC(=O)O)C(=O)O", "note": "(stereo not drawn) [Glutathione (oxidized)]", "LC retention time": 10.2}
{"smiles": "NC(CCC(=O)NC(CS)C(=O)NCC(=O)O)C(=O)O", "note": "(stereo not drawn) [Glutathione (reduced)]", "LC retention time": 9.07}
{"smiles": "NCC(=O)NCC(=O)NCC(=O)O", "note": "[Gly-Gly-Gly]", "LC retention time": 9.18}
{"smiles": "CCC(C)C(NC(=O)CN)C(=O)O", "note": "(stereo not drawn) [Gly-Ile]", "LC retention time": 7.67}
{"smiles": "NCC(=O)N1CCCC1C(=O)O", "note": "(stereo not drawn) [Gly-Pro]", "LC retention time": 8.62}
{"smiles": "CC(NC(=O)C(Cc1ccc(O)cc1)NC(=O)CN)C(=O)O", "note": "(stereo not drawn) [Gly-Tyr-Ala]", "LC retention time": 7.89}
{"smiles": "NCC(=O)NC(Cc1ccc(O)cc1)C(=O)O", "note": "(stereo not drawn) [Gly-Tyr]", "LC retention time": 8.07}
{"smiles": "CC(C)C(NC(=O)CN)C(=O)O", "note": "(stereo not drawn) [Gly-val]", "LC retention time": 8.05}
{"smiles": "C[N+](C)(C)CCOP(=O)([O-])OCC(O)CO", "note": "(stereo not drawn) [Glycerophosphocholine]", "LC retention time": 8.67}
{"smiles": "NCC(=O)O", "note": "[Glycine]", "LC retention time": 8.33}
{"smiles": "COc1cc2c(=O)c(-c3ccc(O)cc3)coc2cc1O", "note": "[Glycitein]", "LC retention time": 1.32}
{"smiles": "CC(C)CC(NC(=O)CN)C(=O)O", "note": "(stereo not drawn) [Glycyl-leucine]", "LC retention time": 8.14}
{"smiles": "CC(C)CC(NC(=O)C(COC(C)(C)C)NC(=O)C(Cc1ccc(O)cc1)NC(=O)C(CO)NC(=O)C(Cc1c[nH]c2ccccc12)NC(=O)C(Cc1cnc[nH]1)NC(=O)C1CCC(=O)N1)C(=O)NC(CCCN=C(N)N)C(=O)N1CCCC1C(=O)NNC(N)=O", "note": "(stereo not drawn) [Goserelin]", "LC retention time": 7.83}
{"smiles": "CN1C2CCCC1CC(NC(=O)c1nn(C)c3ccccc13)C2", "note": "(stereo not drawn) [Granisetron]", "LC retention time": 4.12}
{"smiles": "NC(N)=NCC(=O)O", "note": "[Guanidinoacetic acid]", "LC retention time": 8.16}
{"smiles": "Nc1nc2nc[nH]c2c(=O)[nH]1", "note": "[Guanine]", "LC retention time": 6.4}
{"smiles": "Nc1nc2c(ncn2C2OC3COP(=O)(O)OC3C2O)c(=O)[nH]1", "note": "(stereo not drawn) [Guanosine-3',5'-cyclic monophosphate]", "LC retention time": 8.39}
